Assay results taken from patent US20050154229A1, “Maleic acid salt of(2s)-n-{5-[amino(imino)methy]-2-thienyl}methyl-1-{(2r)-2-[(carboxymethyl)amino]-3,3-diphenylpropanoyl}-2-pyrrolidine carboxamide and a process for” (priority 2002, published 2005).
Where a name gives a salt, the structure may show the parent alone.

What was measured:
Assay type in all cases: physicochemical
[1] = Moisture absorption and dehumidification tests at defined relative humidities (condition observed, weight change); conditions: two days or more
Method: After 40 mg of the amorphous form of maleic acid salt prepared in Example 1 was thinly coated onto a beaker, the sample was moisture-absorbed by placing it at each relative humidity of 33%, 57%, 64%, 75% and 93% for two days or more and its condition was observed. In order to obtain each relative humidity above, as shown in the table below, saturated aqueous solutions of salts were prepared and then placed in a desiccator, and the desiccator was sealed.
100 mg of the crystalline form of maleic acid salt prepared in Example 2 was thinly coated onto a beaker and then placed at each relative humidity of 33%, 57%, 64%, 75% and 93% for two days or more to be moisture-absorbed. Thereafter, the weight change of the sample was measured while its condition is observed. In order to obtain each relative humidity above, as shown in Table 2 of Test example 2, saturated aqueous solutions of salts were prepared and then placed in a desiccator and the desiccator was sealed.
The method as described in Test example 2 was applied to the amorphous diHCl salt prepared in Comparative Example 1. From observing its change at each relative humidity, it is shown that the salt was deliquesced at the relative humidity of 75%. […] Therefore, it can be shown that the maleic acid salt is the most excellent among various acid salts.

[2] = Test of the dissolution rate per unit area (0.5 cm^2 disk in buffer solutions)
Method: Some compounds may have difficulty in being absorbed due to a low dissolution rate. To confirm the above difficulty beforehand, a disk having the area of 0.5 cm^2 is prepared, and then its dissolution rate in various media is measured. The dissolution amount over time is measured and its value is divided by the disk's area. The value is the dissolution rate per unit area. If the value is usually 1 mg/min/cm^2 or more, it can be said that there is no phenomenon for the drug not to be absorbed due to the low dissolution rate. If the value is 0.1 mg/min/cm^2 or less, it can be said that the drug has a problem of absorption due to the low dissolution rate (see, Howard C. Ansel, Nicholas G. Popovich and Loyd V. Allen, 1995, Pharmaceutical Dosage Forms and Drug Delivery Systems, 6th ed., Williams & Wilkins, pp.109 and Jens T. Carstensen, 1996, Modern Pharmaceutics: Gilbert S. Banker and Christopher T. Rhodes (Ed.), Drugs and the pharmaceutical sciences, Vol. 72, 3rd ed., Dekker, pp. 233.). Thus, measuring the dissolution rate per unit area has a very significant meaning in predicting the absorption problem that may occur in in vivo test of the drug later. Therefore, a compound having an excellent dissolution rate per unit area should be selected as a candidate for the drug development.
200 mg of the crystalline form of maleic acid salt prepared in Example 2 was put into a mold. By applying pressure on the mold, a disk having the area of 0.5 cm^2 was prepared and the disk was added to each of the buffer solutions (600 ml) of pH 3.8 and 7.4 to conduct the dissolution test. A portion of the solution was periodically taken and its concentration was measured to determine the dissolution rate per unit area.
The same test as Test example 5 was conducted on the free compound of Formula 1. The dissolution rate per unit area of the free compound was 1.3 mg/min/cm^2 at pH 3.8 and 0.3 mg/min/cm^2 at pH 7.4.

[3] = Powder X-ray diffraction test during moisture absorption and dehumidification; conditions: vacuum dried, then relative humidity 33%, 53%, 64%, 75% and 93%, two days or more each
Method: 40 mg of the crystalline form of maleic acid salt prepared in Example 2 was thinly coated onto a sample holder and then the powder X-ray diffraction test was conducted according to the following conditions. By using Rigaku Geigeflex D/max-III C apparatus, the test was conducted at 35 kV, 20 mA.
40 mg of the maleic acid salt prepared in Example 2 was thinly coated onto a sample holder. Immediately after the sample was vacuum dried in the presence of P2O5, and after the sample was placed for moisture absorption at each relative humidity of 33%, 53%, 64%, 75% and 93% for two days or more, respectively, the powder X-ray diffraction test of the sample was conducted according to the conditions represented in the above Test example 1 to observe change of the crystalline form during moisture absorption. While lowering the relative humidity, the same test was repeated to observe change of the crystalline form during dehumidification. In order to obtain each relative humidity above, as shown in Table 2 of Test example 2, saturated aqueous solutions of salts were prepared and then placed in a desiccator and the desiccator was sealed.

condition observed after moisture absorption ([1]; relative humidity of 75%) | condition observed after moisture absorption ([1]; relative humidity of 93%) | dissolution rate per unit area ([2]; buffer solution pH 3.8, 600 ml) | dissolution rate per unit area ([2]; buffer solution pH 7.4, 600 ml) | change of the powder X-ray diffraction diagram (crystalline form) during moisture absorption and dehumidification [3] | weight increase on moisture absorption based on initial weight ([1]; relative humidity of 33%) | weight increase on moisture absorption based on initial weight ([1]; relative humidity of 57%) | weight increase on moisture absorption based on initial weight ([1]; relative humidity of 64%) | weight increase on moisture absorption based on initial weight ([1]; relative humidity of 75%) | weight increase on moisture absorption based on initial weight ([1]; relative humidity of 93%) | Structure (SMILES)
hardened | deliquesced |  |  |  |  |  |  |  |  | N=C(N)c1ccc(CNC(=O)[C@@H]2CCCN2C(=O)[C@H](NCC(=O)O)C(c2ccccc2)c2ccccc2)s1.O=C(O)/C=C\C(=O)O [amorphous form of maleic acid salt, maleic acid salt of (2S)-N-{5-[amino(imino)methyl]-2-thienyl}methyl-1-{(2R)-2-[(carboxymethyl)amino]-3,3-diphenylpropanoyl}-2-pyrrolidine carboxamide]
 |  | 1.3 mg/min/cm^2 | 0.3 mg/min/cm^2 |  |  |  |  |  |  | N=C(N)c1ccc(CNC(=O)[C@@H]2CCCN2C(=O)[C@H](NCC(=O)O)C(c2ccccc2)c2ccccc2)s1 [free compound, (2S)-N-{5-[amino(imino)methyl]-2-thienyl}methyl-1-{(2R)-2-[(carboxymethyl)amino]-3,3-diphenylpropanoyl}-2-pyrrolidine carboxamide]
 | not deliquesced | 11.8 mg/min/cm^2 | 1.7 mg/min/cm^2 | did not show any change | 1.4% | 3.0% | 4.3% | 4.1% | 6.7% | N=C(N)c1ccc(CNC(=O)[C@@H]2CCCN2C(=O)[C@H](NCC(=O)O)C(c2ccccc2)c2ccccc2)s1.O=C(O)/C=C\C(=O)O [crystalline form of maleic acid salt, maleic acid salt of (2S)-N-{5-[amino(imino)methyl]-2-thienyl}methyl-1-{(2R)-2-[(carboxymethyl)amino]-3,3-diphenylpropanoyl}-2-pyrrolidine carboxamide]
deliquesced |  |  |  |  |  |  |  |  |  | N=C(N)c1ccc(CNC(=O)[C@@H]2CCCN2C(=O)[C@H](NCC(=O)O)C(c2ccccc2)c2ccccc2)s1 [amorphous diHCl salt]
